Experimental data taken from patent USH1996H, “Insecticidal photostable acid salt derivatives of N-benzyl-4-benzhydrolpiperidines” (FMC Corporation, priority 1998, dated 2001).
Structures can show the parent of a compound that is named as a salt.

How the values were obtained:
[1] = photostability under Suntest CPS illuminator (filtered xenon lamp), HPLC; type: physicochemical; settings: photodegradation of thin film on glass coverslips, simulated sunlight (xenon lamp), about 25 °C, 0-96 hours
Description: Compounds of the present invention were subjected to determinations of their photostability in side-by-side tests with their non-ionic parent analogs. These photostability tests are conducted as follows:
For each compound tested, four glass microscope coverslips (12 mm in diameter) for each illumination period (0, 3, 6, 12, 24, 48, and 96 hours) are spotted with 10 microliters of a one mg/mL acetonitrile or methanol solution of test compound. The solutions are allowed to evaporate leaving a thin film of test compound on each coverslip. The four coverslips representing the zero hour illumination period are placed in a 20 mL scintillation vial. In the vile is placed one mL of acetonitrile, which extracts the test chemical from the coverslip. The solution is then transferred to a two dram vile for analysis by HPLC. The average HPLC peak area generated by this sample defines the initial level of test compound. The remaining coverslips are then placed in the water-cooled chamber of the exposure platform of a Suntest CPS illuminator (Heraeus Instruments GmbH; Bereich Original Hanau, Hersaeusstrasse R-14, Postfach 1563, D-6450 Hanau 1). The exposure platform is covered with a quartz plate and maintained at about 25° C. for the duration of the test. The Suntest CPS illuminator employs a filtered xenon lamp, which provides illumination of a similar spectrum and intensity as sunlight. Four coverslips for each test compound are removed from the illuminator at the end of each illumination period described above. The four coverslips from each of the illumination periods are treated as described above and the acetonitrile extract is analyzed by HPLC. The average HPLC peak area from each of the illumination periods represents a diminished amount of test compound when compared to the initial level of test compound as determined from the zero hour illumination sample. The percents of test compound remaining from each of these illumination periods are used to generate a degradation curve from which a half life in hours is determined for each test compound.

[2] = system: tobacco budworm (Heliothis virescens [Fabricius]); assay: insecticidal activity against tobacco budworm, treated artificial diet surface; type: in vivo; settings: 0.0025 millimoles on the surface of the diet; second instar larvae; five-day exposure; 7200 min
Description: Candidate insecticides are evaluated for activity against tobacco budworm (Heliothis virescens [Fabricius]) by applications to the surface of a wheat germ-based artificial insect diet. Solutions of the candidate insecticides are prepared for testing by diluting a standard 50 millimolar DMSO solution of each candidate insecticide with DMSO, then further diluting with a 1:1 water/acetone solution (V/V). Forty microliters of this solution of calculated concentration is then pipetted onto the surface of the diet in each of six containers, to provide six replicates for each rate of application. Once treated, the contents of the containers are allowed to dry, leaving the calculated concentration ( in millimoles) of candidate insecticide on the surface of the diet. In each container is placed one second instar tobacco budworm […]. The container is sealed with a transparent film, and then held in a growth chamber for five days. After the five-day exposure period the insecticidal activity of the candidate insecticide is recorded as percent mortality when compared to the total number of insects infested. Insecticidal activity at a concentration of candidate insecticide of 0.0025 millimoles on the surface of the diet is given for various compounds of this invention in Table 4.

Half-life [1] [h]	SMILES	Percent Mortality [2] [%]
5.5	CCn1nnc(-c2ccc(CN3CCC(C(O)(c4ccc(C(F)(F)F)cc4)c4ccc(C(F)(F)F)cc4)CC3)cc2)n1 [A, reference compound]	
13.9	CCn1nnc(-c2ccc(C[N+]3([O-])CCC(C(O)(c4ccc(C(F)(F)F)cc4)c4ccc(C(F)(F)F)cc4)CC3)cc2)n1 (centres unmarked) [B, N-[4-(2-ethyl-2H-tetrazol-5-yl)phenylmethyl]-4-[bis(4-trifluoromethylphenyl)hydroxymethyl]piperidine N-oxide, reference compound]	
23.0	CCn1nnc(-c2ccc(CN3CCC(C(O)(c4ccc(C(F)(F)F)cc4)c4ccc(C(F)(F)F)cc4)CC3)cc2)n1 [Compound 7]	
	COC(=O)Nc1ccc(C[N+]2([O-])CCC(C(O)(c3ccc(OC(F)(F)F)cc3)c3ccc(OC(F)(F)F)cc3)CC2)cc1 (centres unmarked) [Compound 16]	100
34.0	CCn1nnc(-c2ccc(C[N+]3([O-])CCC(C(O)(c4ccc(C(F)(F)F)cc4)c4ccc(C(F)(F)F)cc4)CC3)cc2)n1 (centres unmarked) [Compound 33, N-[4-(2-ethyl-2H-tetrazol-5-yl)phenylmethyl]-4-[bis(4-trifluoro-methylphenyl)hydroxymethyl]piperidine N-oxide ethanesulfonic acid salt]	
